Measurements taken from PubChem BioAssay (NCI).
Where “and” joins values, the source holds several entries; their conditions need not be identical. Equal entries are not always repeated.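 Step 1: Grow cells in 96-well plates. Step 2: Expose to compound for 48 hours at 5 concentrations. Step 3: Interpolate endpoints linearly; if unreached, use highest concentration. GI50 is the concentration that inhibits growth by half. Definition used: TGI = concentration required for complete inhibition of growth.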

What was measured:
Experiment in all cases: DTP human tumour cell line panel, 48 h
HL-60(TB) leukemia = tested on: HL-60(TB) leukemia
SK-MEL-28 melanoma = tested on: SK-MEL-28 melanoma
NCI-H522 lung = tested on: NCI-H522 lung
T-47D breast = tested on: T-47D breast
LOX IMVI melanoma = tested on: LOX IMVI melanoma
K-562 leukemia = tested on: K-562 leukemia
U251 CNS = tested on: U251 CNS
SK-MEL-2 melanoma = tested on: SK-MEL-2 melanoma
UACC-62 melanoma = tested on: UACC-62 melanoma
MDA-MB-231 breast = tested on: MDA-MB-231 breast

| Compound | TGI (HL-60(TB) leukemia) | TGI (SK-MEL-28 melanoma) | TGI (NCI-H522 lung) | TGI (T-47D breast) | TGI (LOX IMVI melanoma) | TGI (K-562 leukemia) | TGI (U251 CNS) | TGI (SK-MEL-2 melanoma) | TGI (UACC-62 melanoma) | TGI (MDA-MB-231 breast) | GI50 (HL-60(TB) leukemia) | GI50 (SK-MEL-28 melanoma) | GI50 (NCI-H522 lung) | GI50 (T-47D breast) | GI50 (LOX IMVI melanoma) | GI50 (K-562 leukemia) | GI50 (U251 CNS) | GI50 (UACC-62 melanoma) |
| --- | --- | --- | --- | --- | --- | --- | --- | --- | --- | --- | --- | --- | --- | --- | --- | --- | --- | --- |
| Oc1cc(Br)cc2cc(Cl)cnc12 | 2.75 µM | > 100 µM | 10.6 µM | 16.7 µM | > 26.5 µM | 12.3 µM | > 82.8 µM | 95.9 µM | 6.1 µM | > 100 µM |  |  |  |  |  |  |  |  |
| COc1cc(CS(=O)c2ccc(O)cc2)cc(OC)c1OC (stereo unspecified) | > 100 µM | > 100 µM | > 100 µM | > 100 µM | > 100 µM | > 100 µM | > 100 µM | > 100 µM | > 100 µM | > 100 µM |  |  |  |  |  |  |  |  |
| CCCCCCCCCCCCCC(=O)N(CCCCCCCCC)CC(O)C(O)C(OC1OC(CO)C(O)C(O)C1O)C(O)CO (stereo unspecified) | 48.7 µM | 33.6 µM | 44.4 µM | 39.7 µM | 39.6 µM | 39.4 µM | 38.6 µM | 59 µM | 38.2 µM | 37.2 µM |  |  |  |  |  |  |  |  |
| OC1C[C@H](c2ccccc2)C2(C(O)c3ccccc3C2O)[C@@H](c2ccccc2)C1 (stereo partly specified) | > 100 µM | > 100 µM | > 100 µM | > 100 µM | > 100 µM | > 100 µM | > 100 µM | > 100 µM | > 100 µM | > 100 µM |  |  |  |  |  |  |  |  |
| O=C(O)C(=O)/C=C(\O)c1ccc(Br)cc1 | > 100 µM | > 100 µM | > 100 µM | > 100 µM | > 100 µM | > 100 µM | > 100 µM | > 100 µM | > 100 µM | > 100 µM |  |  |  |  |  |  |  |  |
| O=[N+]([O-])C(Cl)=C/C(=C(\Cl)SCc1ccccc1)[N+](=O)[O-] | 23.8 µM | 59.7 µM | 46.2 µM | 40.2 µM | 33.6 µM | 30.5 µM | 34.9 µM | 76.5 µM | > 100 µM | 59.3 µM |  |  |  |  |  |  |  |  |
| C[N+](C)(CCNC(=O)c1cccc2cc3ccccc3nc12)Cc1ccc([N+](=O)[O-])s1 | > 25 µM | > 25 µM | > 25 µM | > 25 µM | > 25 µM | > 25 µM | > 25 µM | > 25 µM | > 25 µM | > 25 µM |  |  |  |  |  |  |  |  |
| C=CCn1c(-c2ccc([N+](=O)[O-])cc2)csc1=N | 45.2 µM | > 100 µM | > 100 µM | > 100 µM | 70.5 µM | 91.5 µM | > 100 µM | > 100 µM | > 100 µM | > 100 µM |  |  |  |  |  |  |  |  |
| COc1ccc(N2NC(c3ccccc3)(c3ccccc3)C(C)C2=O)cc1 (stereo unspecified) | > 100 µM | > 100 µM | > 100 µM | > 100 µM | > 100 µM | > 100 µM | > 100 µM | > 100 µM | > 100 µM | > 100 µM |  |  |  |  |  |  |  |  |
| Cc1cc(S(=O)(=O)/N=C(/NN)NNc2cccc(C(F)(F)F)n2)c(S)cc1Cl | 71.6 µM | 33.5 µM | 60.4 µM | 40.7 µM | 39.7 µM | 82.6 µM | 33.6 µM | 63.2 µM | 37 µM | > 100 µM |  |  |  |  |  |  |  |  |
| CCOC(=O)/C=C(\C(=O)OCC)n1ccc(=O)[nH]c1=O | 6.2 µM | 33.4 µM | 2.12 µM | 33.1 µM | 28.7 µM | 19.1 µM | 32.6 µM | 50 µM | 31.3 µM | 32.6 µM |  |  |  |  |  |  |  |  |
| CCOC(=O)c1c(-c2cccc3ccccc23)c(C#N)c(=S)n(C2OC(COC(C)=O)C(OC(C)=O)C(OC(C)=O)C2OC(C)=O)c1C (stereo unspecified) | > 100 µM | > 100 µM | > 100 µM | > 100 µM | > 100 µM | > 100 µM | > 100 µM | > 100 µM | > 100 µM | > 100 µM |  |  |  |  |  |  |  |  |
| COc1ccc(Nc2nc(N)c(C(=O)c3cccs3)s2)cc1 | > 22.8 µM | > 95.7 µM | > 100 µM | > 64.1 µM | > 100 µM | > 100 µM | > 100 µM | > 51.4 µM | > 54.2 µM | > 80.8 µM |  |  |  |  |  |  |  |  |
| Cc1c(C(=O)O)n2cnnc2c2ccccc12 | > 100 µM | > 100 µM | > 100 µM | > 100 µM | > 100 µM | > 100 µM | > 100 µM | > 100 µM | > 100 µM | > 100 µM |  |  |  |  |  |  |  |  |
| Fc1cc(-c2cc(-c3ccc4c(c3)OCO4)n[nH]2)c(Cl)cc1Cl | > 100 µM | 16.9 µM | 14.6 µM | 7.79 µM | 8.49 µM | > 40.1 µM | 3.63 µM | 36.5 µM | 3.8 µM | 4.94 µM |  |  |  |  |  |  |  |  |
| c1ccc(CN2CCN3CCN(CC2)CCN(Cc2ccccc2)CC3)cc1 | 8.32 µM | 18.4 µM | 16 µM | 35.8 µM | 25.7 µM | 25.6 µM | 15.8 µM | 8.06 µM | 14.9 µM | 18.4 µM |  |  |  |  |  |  |  |  |
| CCC(NC1=NCCO1)c1cccs1 (stereo unspecified) | 82.7 µM | 29 µM | 35.6 µM | 37 µM | 66.7 µM | 47.4 µM | 26.3 µM | 29.4 µM | 30.8 µM | 44.6 µM |  |  |  |  |  |  |  |  |
| CC1(C)CCc2c(c(N=Nc3ccc(F)cc3)c3ccccc3c2O)O1 | 65.1 µM | > 100 µM | > 100 µM | 86.8 µM | 47.3 µM | > 100 µM | > 100 µM | 93 µM | 31.3 µM | > 100 µM |  |  |  |  |  |  |  |  |
| O=C1C(=Cc2ccc(Cl)c(Cl)c2)C([O-])=C([P+](c2ccccc2)(c2ccccc2)c2ccccc2)C([O-])=C1[P+](c1ccccc1)(c1ccccc1)c1ccccc1 | 3.18 µM | 6.07 µM | 4.1 µM | 15.7 µM | 2.67 µM | 8.33 µM | 6.29 µM | 6.91 µM | 5.29 µM | 8.78 µM |  |  |  |  |  |  |  |  |
| CC(=O)c1c2n(n(-c3ccccc3)c1=O)C(=O)c1nccnc1-2 | > 100 µM | > 100 µM | > 100 µM | > 100 µM | > 100 µM | > 100 µM | > 100 µM | > 100 µM | > 100 µM | > 100 µM |  |  |  |  |  |  |  |  |
| CCN1CCC(O)(/C=C/c2ccc(C(C)C)cc2)C(C(=O)/C=C/c2ccc(C(C)C)cc2)C1 (stereo unspecified) | > 26.8 µM | 11.7 µM | 4.21 µM | 6.19 µM | 3.38 µM | > 29 µM | 7.32 µM | 10.5 µM | 15.7 µM | 3.82 µM |  |  |  |  |  |  |  |  |
| OC(CC(O)(C(F)(F)F)C(F)(F)F)c1ccc(C(O)CC(O)(C(F)(F)F)C(F)(F)F)cc1 (stereo unspecified) | 37.4 µM | 30.6 µM | 40.5 µM | 31.3 µM | 30.7 µM | 60.7 µM | 31.1 µM | 38.4 µM | 25.2 µM | 28.7 µM |  |  |  |  |  |  |  |  |
| Cc1ccc(NC(=O)CSC(N)=O)cc1C | > 100 µM | > 100 µM | > 100 µM | > 100 µM | > 100 µM | > 100 µM | > 100 µM | > 100 µM | > 100 µM | > 100 µM |  |  |  |  |  |  |  |  |
| N#CC(C#N)=C1C(=O)NC(N)=C1C#N | > 100 µM | > 100 µM | > 100 µM | > 100 µM | > 100 µM | > 100 µM | > 100 µM | > 100 µM | > 100 µM | > 100 µM |  |  |  |  |  |  |  |  |
| COc1cc(Br)c(CC2C3=C(CCN2C(=O)C2CCC2)CC(=O)CC3)cc1O (stereo unspecified) | 36.9 µM | > 100 µM | 34.3 µM | 71.8 µM | > 100 µM | 81.3 µM | > 100 µM | > 100 µM | 36.3 µM | > 100 µM |  |  |  |  |  |  |  |  |
| CN(Cc1cc(Cl)c(Cl)cc1NC(=O)CN)[C@H]1CCCC[C@@H]1N1CCCC1 | > 100 µM | 41.5 µM | 40.4 µM | > 100 µM | 32.3 µM | 35.9 µM | 18.8 µM | 31.9 µM | 31.5 µM | > 100 µM |  |  |  |  |  |  |  |  |
| Cc1cn(S(=O)(=O)c2ccccc2)c2c(OCc3ccccc3)cc(NS(C)(=O)=O)cc12 | > 20.6 µM | > 100 µM | > 75.9 µM | 39.4 µM | > 100 µM | > 100 µM | > 65.7 µM | 63.5 µM | > 89.2 µM | 32.8 µM |  |  |  |  |  |  |  |  |
| C=CCC(C(=O)Nc1cccc2[nH]cnc12)C(=O)OCC (stereo unspecified) | > 100 µM | > 100 µM | > 100 µM | > 100 µM | > 100 µM | > 100 µM | > 100 µM | > 100 µM | > 100 µM | > 100 µM |  |  |  |  |  |  |  |  |
| CN(C)/N=N/c1nc[nH]c1C(N)=O | 85 µM and > 745 µM | > 1000 µM | 89.3 µM and > 779 µM | > 464 µM | > 1000 µM |  | > 1000 µM | 74.1 µM and 396 µM | > 98.6 µM and 363 µM | > 1000 µM | 4.16 µM | 595 µM | 82 µM | 77.3 µM | 29.8 µM | 39 µM | 71.5 µM | 23.8 µM |
| C=C(C(=O)O[C@H]1C(=O)C2=C(C)CCC3C(=C)C(=O)O[C@@H]3C2[C@]1(C)O)C1CC[C@]2(C)CCCC(=C)[C@H]2C1 (stereo partly specified) | 4.35 µM | 12.5 µM | 8.55 µM | 13.1 µM and 5.03 µM | 11.5 µM and 15.7 µM | > 20.1 µM | 7.04 µM and 9.95 µM | 20.3 µM and 23.5 µM | 9.79 µM and 31.6 µM | 13.8 µM |  |  |  | 2.06 µM | 5.26 µM |  | 0.117 µM | 16.9 µM |
